{"source": "ChEMBL document CHEMBL1201862", "about": "“PubChem BioAssay data set” (2004)", "key": {"[1]": {"test": "cytotoxicity in HEK-293T cells, dose response, cytotoxicity control for TCR NF-kB inhibitor project, luminescence, T-cell screen hits (AID 489026);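 further: cells exposed to compound about 14 hours before the viability readout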", "format": "functional, cell-based"}, "[2]": {"test": "inhibitors of firefly luciferase expression or activity, dose response, H4 neuroglioma cells, luminescence (AID 1990)", "format": "functional, cell-based"}, "[3]": {"tested_on": "BJ", "test": "cytotoxicity toward BJ-TERT fibroblasts, dose response, cell-based, RAS-independent, luminescence (AID 1933)", "format": "functional", "conditions": "Homo sapiens"}, "[4]": {"test": "Luminescence Cell-Based Dose Response HTS to Identify Inhibitors of 5'UTR Stem-Loop Driven Prion Protein mRNA Translation in H4 Neuroglioblastoma Cells. [Related pubchem assays: 1827 (Project Summary), 1813 (Primary HTS)]", "format": "functional"}, "[5]": {"tested_on": "BJ", "test": "cells", "format": "functional, cell-based", "conditions": "Homo sapiens"}, "[6]": {"tested_on": "BJ", "test": "cytotoxicity toward BJ-TERT-LT-ST fibroblasts, dose response, cell-based, RAS-independent, luminescence (AID 1935);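 further: BJ fibroblasts immortalized with TERT plus LT and ST oncogenes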", "format": "functional", "conditions": "Homo sapiens"}, "[7]": {"test": "cytotoxicity toward DRD oncogenic fibroblasts, dose response, cell-based, non-viral oncogenic, luminescence (AID 1934)", "format": "functional", "conditions": "Homo sapiens"}, "[8]": {"target": "Glyceraldehyde-3-phosphate dehydrogenase (Homo sapiens, UniProt P04406)", "sequence (P04406 whole entry)": "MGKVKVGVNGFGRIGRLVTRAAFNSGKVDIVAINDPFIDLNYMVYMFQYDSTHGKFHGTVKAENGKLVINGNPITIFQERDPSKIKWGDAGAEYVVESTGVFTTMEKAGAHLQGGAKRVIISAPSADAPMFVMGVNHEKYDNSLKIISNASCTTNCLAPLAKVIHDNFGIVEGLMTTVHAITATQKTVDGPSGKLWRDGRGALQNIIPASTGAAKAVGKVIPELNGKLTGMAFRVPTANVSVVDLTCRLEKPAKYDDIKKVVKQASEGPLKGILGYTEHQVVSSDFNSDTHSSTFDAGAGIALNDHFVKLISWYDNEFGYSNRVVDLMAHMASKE"}, "[9]": {"target": "T1, Alkaline phosphatase, tissue-nonspecific isozyme (Homo sapiens, UniProt P05186)", "T1 sequence (P05186 whole entry)": "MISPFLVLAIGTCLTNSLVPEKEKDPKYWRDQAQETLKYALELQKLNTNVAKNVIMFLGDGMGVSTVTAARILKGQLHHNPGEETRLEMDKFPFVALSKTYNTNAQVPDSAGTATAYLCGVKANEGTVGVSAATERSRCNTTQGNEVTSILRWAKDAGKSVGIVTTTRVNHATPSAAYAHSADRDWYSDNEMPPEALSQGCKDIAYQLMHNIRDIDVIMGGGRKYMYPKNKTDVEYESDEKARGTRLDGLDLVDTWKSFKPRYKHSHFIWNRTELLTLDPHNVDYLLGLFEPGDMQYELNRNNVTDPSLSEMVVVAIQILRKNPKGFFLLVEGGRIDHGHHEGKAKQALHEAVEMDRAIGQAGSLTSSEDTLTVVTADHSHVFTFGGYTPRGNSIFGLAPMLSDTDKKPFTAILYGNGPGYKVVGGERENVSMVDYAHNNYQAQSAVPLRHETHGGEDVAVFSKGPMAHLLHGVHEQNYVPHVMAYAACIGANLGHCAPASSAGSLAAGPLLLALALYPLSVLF", "test": "human TNAP enzyme inhibitors, SAR follow-up, biochemical, luminescent, dose response (AID 1056)"}, "[10]": {"target": "T2, Short transient receptor potential channel 4 (Mus musculus, UniProt Q9QUQ5)", "T2 sequence (Q9QUQ5 whole entry)": "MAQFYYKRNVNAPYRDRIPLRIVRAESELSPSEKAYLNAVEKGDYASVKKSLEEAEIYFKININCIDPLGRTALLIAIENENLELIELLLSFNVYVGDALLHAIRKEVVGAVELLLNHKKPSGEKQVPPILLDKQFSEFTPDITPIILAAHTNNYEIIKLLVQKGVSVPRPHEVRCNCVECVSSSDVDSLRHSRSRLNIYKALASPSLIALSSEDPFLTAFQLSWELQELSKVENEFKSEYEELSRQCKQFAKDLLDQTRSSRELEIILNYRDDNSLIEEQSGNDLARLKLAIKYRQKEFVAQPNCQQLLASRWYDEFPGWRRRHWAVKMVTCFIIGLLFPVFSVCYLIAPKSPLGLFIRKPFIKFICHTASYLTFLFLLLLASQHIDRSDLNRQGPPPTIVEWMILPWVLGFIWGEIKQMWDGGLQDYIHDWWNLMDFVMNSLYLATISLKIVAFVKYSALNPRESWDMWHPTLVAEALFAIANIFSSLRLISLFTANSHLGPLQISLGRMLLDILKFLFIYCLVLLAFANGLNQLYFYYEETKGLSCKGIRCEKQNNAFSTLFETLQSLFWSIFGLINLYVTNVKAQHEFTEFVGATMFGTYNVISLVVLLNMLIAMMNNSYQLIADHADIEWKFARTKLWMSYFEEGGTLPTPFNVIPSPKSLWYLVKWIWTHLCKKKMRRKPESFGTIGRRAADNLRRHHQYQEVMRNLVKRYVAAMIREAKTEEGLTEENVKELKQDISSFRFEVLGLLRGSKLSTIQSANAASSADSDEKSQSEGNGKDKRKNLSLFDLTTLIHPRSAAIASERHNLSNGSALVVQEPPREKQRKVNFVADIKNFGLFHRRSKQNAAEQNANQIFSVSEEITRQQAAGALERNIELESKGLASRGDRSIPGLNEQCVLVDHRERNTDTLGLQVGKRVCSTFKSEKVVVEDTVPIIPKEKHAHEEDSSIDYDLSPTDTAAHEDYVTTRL", "test": "mouse TRPC4 channel inhibitors, dose response, cell-based, HEK293 TRPC4/mu-opioid, Fluo-4 calcium (AID 434942);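 further: potency of inhibitors blocking the TRPC4 calcium response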", "format": "functional"}, "[11]": {"tested_on": "Escherichia coli", "test": "microbe, parasite or virus in culture"}, "[12]": {"target": "Glucose-6-phosphate 1-dehydrogenase (Homo sapiens, UniProt P11413)", "sequence (P11413 whole entry)": "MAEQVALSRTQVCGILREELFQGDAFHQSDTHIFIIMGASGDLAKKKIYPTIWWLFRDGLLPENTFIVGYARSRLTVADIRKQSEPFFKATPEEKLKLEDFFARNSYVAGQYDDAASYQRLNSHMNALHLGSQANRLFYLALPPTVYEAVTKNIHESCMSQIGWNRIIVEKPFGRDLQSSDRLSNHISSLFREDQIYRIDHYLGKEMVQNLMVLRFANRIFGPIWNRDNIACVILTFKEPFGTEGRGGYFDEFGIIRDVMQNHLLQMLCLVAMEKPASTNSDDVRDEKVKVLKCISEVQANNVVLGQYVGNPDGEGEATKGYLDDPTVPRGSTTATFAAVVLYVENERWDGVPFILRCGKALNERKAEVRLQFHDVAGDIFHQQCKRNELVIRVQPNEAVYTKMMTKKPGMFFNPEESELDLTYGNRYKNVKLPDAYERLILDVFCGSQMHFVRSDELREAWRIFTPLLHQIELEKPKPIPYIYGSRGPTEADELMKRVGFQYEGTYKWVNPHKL", "test": "human G6PD enzyme inhibitors, dose response, selectivity assay for P. falciparum G6PD inhibitor project, biochemical, fluorescence (AID 504792)", "format": "functional"}, "[13]": {"tested_on": "HEK293", "test": "NOD1 signaling inhibitors, primary screen, cell-based, luminescence, uHTS (AID 1578)", "format": "functional", "conditions": "Homo sapiens"}, "[14]": {"tested_on": "HEK293", "test": "cells", "format": "functional, cell-based", "conditions": "Homo sapiens"}, "[15]": {"tested_on": "HEK293", "test": "cells", "format": "functional, cell-based", "conditions": "Homo sapiens", "remark": "listed apart in the source"}, "[16]": {"tested_on": "HEK293", "test": "NOD2 signaling inhibitors in MDP-stimulated cells, cell-based, uHTS, luminescence (AID 2001)", "format": "functional", "conditions": "Homo sapiens"}, "[17]": {"test": "inhibitors of clade B AD8 Env fusion, dose response, cell-based, cherry-pick (AID 652062);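 further: potency is for inhibitors of fusion seen as a drop in luminescence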", "format": "functional"}, "[18]": {"tested_on": "Escherichia coli", "test": "microbe, parasite or virus in culture", "remark": "listed apart in the source"}, "[19]": {"target": "T3, Rac GTPase-activating protein 1 (Homo sapiens, UniProt Q9H0H5)", "T3 sequence (Q9H0H5 whole entry)": "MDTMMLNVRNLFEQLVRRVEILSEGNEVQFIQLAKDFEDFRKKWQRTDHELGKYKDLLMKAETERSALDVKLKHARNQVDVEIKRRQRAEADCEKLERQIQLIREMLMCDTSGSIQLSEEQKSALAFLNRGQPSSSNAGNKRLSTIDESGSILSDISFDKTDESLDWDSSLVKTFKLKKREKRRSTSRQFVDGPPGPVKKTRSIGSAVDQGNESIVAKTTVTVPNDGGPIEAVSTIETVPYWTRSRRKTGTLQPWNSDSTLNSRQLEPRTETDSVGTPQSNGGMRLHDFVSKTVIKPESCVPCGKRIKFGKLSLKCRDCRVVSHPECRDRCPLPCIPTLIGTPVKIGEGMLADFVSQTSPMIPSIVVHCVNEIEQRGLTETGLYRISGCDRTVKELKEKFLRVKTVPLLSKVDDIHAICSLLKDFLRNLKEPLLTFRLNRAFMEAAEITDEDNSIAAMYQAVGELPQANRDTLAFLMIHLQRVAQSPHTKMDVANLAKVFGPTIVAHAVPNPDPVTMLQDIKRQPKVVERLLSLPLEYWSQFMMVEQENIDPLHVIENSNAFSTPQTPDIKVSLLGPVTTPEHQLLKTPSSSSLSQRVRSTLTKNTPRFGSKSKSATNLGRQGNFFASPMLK", "test": "MgcRacGAP GTPase-activating activity inhibitors, confirmation, biochemical, ADP Hunter fluorescence, primary and confirmatory (AID 624330)", "format": "functional"}}, "note": "Active and inactive are the calls of the source."}
{"smiles": "Cc1ccc2[nH]c(-c3cccc(F)c3)cc(=O)c2c1", "values": [{"measurement": "IC50", "setting": "[1]", "value": "> 80 µM (inactive)"}]}
{"smiles": "COc1ccc(C2=NOC(C(=O)NCc3ccc(F)cc3)C2)cc1OC", "note": "(stereo not drawn)", "values": [{"measurement": "EC50", "setting": "[2]", "value": "11.2 µM (active)"}, {"measurement": "EC50", "setting": "[3]", "value": "1.54 µM (inconclusive)"}, {"measurement": "EC50", "setting": "[4]", "value": "> 120 µM (not active)"}, {"measurement": "EC50", "setting": "[5]", "value": "26 µM (active)"}, {"measurement": "EC50", "setting": "[6]", "value": "5.72 µM (inconclusive)"}, {"measurement": "EC50", "setting": "[7]", "value": "18.3 µM (active)"}, {"measurement": "IC50", "setting": "[1]", "value": "> 80 µM (inactive)"}]}
{"smiles": "O=C1C2CC=CCC2C(=O)N1c1nc[nH]n1", "note": "(stereo not drawn)", "values": [{"measurement": "IC50", "setting": "[8]", "value": "> 100 µM (not active)"}, {"measurement": "IC50", "setting": "[9]", "value": "> 100 µM (inactive)"}]}
{"smiles": "O=C(CSc1nc2ccccc2c(=O)n1CCCO)N1CCc2ccccc21", "values": [{"measurement": "EC50", "setting": "[10]", "value": "596 nM (active)"}]}
{"smiles": "Clc1ccc(-c2csc(-c3cccnc3)n2)s1", "values": [{"measurement": "AC50", "setting": "[11]", "value": "276 µM (active)"}]}
{"smiles": "c1ccc(OCc2nnc3n2N=C(c2ccccc2)CS3)cc1", "values": [{"measurement": "IC50", "setting": "[12]", "value": "> 80 µM (inactive)"}]}
{"smiles": "Cc1ccccc1Cn1c(=N)n(CC(O)c2ccco2)c2ccccc21", "note": "(stereo not drawn)", "values": [{"measurement": "EC50", "setting": "[10]", "value": "668 nM (active)"}]}
{"smiles": "O=C(Nc1nc(-c2ccc3c(c2)OCO3)cs1)c1ccncc1", "values": [{"measurement": "EC50", "setting": "[13]", "value": "3.32 µM (active)"}, {"measurement": "IC50", "setting": "[14]", "value": "4.5 µM (active)"}, {"measurement": "IC50", "setting": "[15]", "value": "11 µM (active)"}, {"measurement": "IC50", "setting": "[16]", "value": "4.79 µM (active)"}, {"measurement": "AC50", "setting": "[17]", "value": "4.67 µM (active)"}]}
{"smiles": "CCCCc1nc2ccccc2c(N)c1CCC.O=C(O)c1cc([N+](=O)[O-])ccc1Cl", "values": [{"measurement": "EC50", "setting": "[10]", "value": "1190 nM (active)"}]}
{"smiles": "CCOc1ccccc1NS(=O)(=O)c1c(C)noc1C", "values": [{"measurement": "IC50", "setting": "[12]", "value": "> 80 µM (inactive)"}]}
{"smiles": "Cn1c(C(=O)OCC(=O)NCC2CCCO2)cc2sccc21", "note": "(stereo not drawn)", "values": [{"measurement": "AC50", "setting": "[18]", "value": "25.8 µM (active)"}, {"measurement": "AC50", "setting": "[11]", "value": "149 µM (active)"}]}
{"smiles": "C=CCOc1cccc(C(=O)N2CCCC(CCC(=O)NCc3ccccc3F)C2)c1", "note": "(stereo not drawn)", "values": [{"measurement": "AC50", "setting": "[11]", "value": "41.3 µM (active)"}]}
{"smiles": "c1cc2c(cc1NC1CCCCCC1)OCO2", "values": [{"measurement": "IC50", "setting": "[12]", "value": "> 80 µM (inactive)"}, {"measurement": "IC50", "setting": "[19]", "value": "48.4 µM (active)"}]}
{"smiles": "C/C(Cn1nnc([N+](=O)[O-])n1)=N\\NC(=O)c1ccc(O)cc1O", "values": [{"measurement": "IC50", "setting": "[12]", "value": "> 80 µM (inactive)"}, {"measurement": "AC50", "setting": "[18]", "value": "84.9 µM (active)"}]}
